Results published in PMC10669220, “In Vitro α-Glucosidase and α-Amylase Inhibition, Cytotoxicity and Free Radical Scavenging Profiling of the 6-Halogeno and Mixed 6,8-Dihalogenated 2-Aryl-4-methyl-1,2-dihydroquinazoline 3-Oxides” (Antioxidants, 2023).

Columns and labels:
[1] = molecular target: T1, α-Glucosidase type 1 from baker's yeast (Saccharomyces cerevisiae, UniProt P53341); test: biochemical; conditions: IC50 α-Glucosidase, mean ± SD, triplicate; tested at 1, 5, 10, 25, 50 µM
T1 construct: purchased Sigma Aldrich (Pty) Ltd. G5003
T1 sequence (P53341 whole entry): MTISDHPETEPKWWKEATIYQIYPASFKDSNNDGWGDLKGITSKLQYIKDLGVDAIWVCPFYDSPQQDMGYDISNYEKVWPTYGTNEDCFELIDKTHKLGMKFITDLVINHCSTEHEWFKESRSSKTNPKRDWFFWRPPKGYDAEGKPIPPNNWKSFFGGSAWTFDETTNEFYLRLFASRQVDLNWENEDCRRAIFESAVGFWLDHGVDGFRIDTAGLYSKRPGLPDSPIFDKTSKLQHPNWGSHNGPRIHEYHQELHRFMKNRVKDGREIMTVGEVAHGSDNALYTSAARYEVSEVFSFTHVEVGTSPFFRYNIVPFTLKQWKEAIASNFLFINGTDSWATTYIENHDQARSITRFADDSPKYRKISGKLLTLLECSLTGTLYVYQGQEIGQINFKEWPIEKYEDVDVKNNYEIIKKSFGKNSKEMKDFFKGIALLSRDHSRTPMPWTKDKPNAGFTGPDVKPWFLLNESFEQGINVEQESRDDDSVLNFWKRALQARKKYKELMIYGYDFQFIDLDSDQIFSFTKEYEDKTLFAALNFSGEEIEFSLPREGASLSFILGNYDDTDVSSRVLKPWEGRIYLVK

[2] = DPPH radical scavenging assay; conditions: mean ± SD; 45 min in the dark; 512 nm
In short: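 Compounds (0–50 µM, in DMSO) were mixed with 0.20 mM DPPH in methanol and kept in the dark for 45 min, with absorbance read at 512 nm. IC50 values were obtained by nonlinear regression of triplicate averaged readings.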

[3] = NO free radical scavenging assay (sodium nitroprusside/Griess); conditions: mean ± SD; sodium nitroprusside, Griess reagent, 550 nm
In short: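 Test compound incubated with 10 mM sodium nitroprusside (stock) in phosphate buffer for 2.5 h at 25 °C, then Griess reagent added for 30 min. Triplicate absorbance means used for IC50 by nonlinear dose–response regression.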

[4] = test system: NO generated from nitric oxide synthase (NOS); test: Inhibitory activity against NO generated from NOS (EnzyChrom kit); format: biochemical; conditions: mean ± SD, 1-50 µM
Protocol: (§1) A nitric oxide synthase (NOS) assay was performed following the procedure recommended by the manufacturer as outlined in the screening kit (Catalogue No. EINO-100; EnzyChrom). Various concentrations (1, 5, 10, 25 and 50 µM) of the compounds 3a, 3c, 3f, 3i, 3l, 3n and 3p and the reference standard, ascorbic acid, were prepared. The enzyme solution (12.5 U/mL NOS, 10 µL), assay buffer (25 µL) and test samples (5 µL) were incubated at room temperature for 15 min. After pre-incubation, 10 µL of reaction mix was added and incubated at 37 °C for 60 min. A 200 µL quantity of NO detection reagent was added, the detection reaction was run at 37 °C for 60 min, and absorbance was determined at a wavelength of 540 nm using an Elisa plate reader (Varioskan Flash, ThermoFisher Scientific, Vantaa, Finland). The average of three readings was used to calculate the NOS percentage inhibition using the following formula: % Inhibition=1−ΔOD Test Compd/ΔOD No Inhibitor ×100%
The IC50 values and standard deviation values were determined from nonlinear regression dose–response curve and compared with the results in GraphPad prism.

[5] = test system: nitric oxide synthase (NOS); test: Kinetic study on inhibitory activity of NOS; format: biochemical; conditions: seven concentrations 1-10.0 μM; Figure 3; read-out: IC50 NOS inhibition (kinetic study)
Protocol: as §1, with “2.5, 4.0, 5.5, 7.0, 8.5” for “5, 10, 25”, “10.0” for “50”, “3i” for “3a, 3c, 3f, 3i, 3l, 3n and 3p”, “DPI,” for “ascorbic acid,”, “uL),” for “µL),”, “formula in Section 2.6.3” for “following formula: % Inhibition=1−ΔOD Test Compd/ΔOD No Inhibitor ×100%”

[6] = molecular target: superoxide dismutase (SOD); test: Superoxide dismutase (SOD) inhibitory assay (SOD assay kit-WST); format: biochemical; conditions: duplicate; 1-50 µM; 25 °C, 30 min; read-out: IC50 SOD inhibition
Protocol: The antioxidant activity of the compounds 3a, 3c, 3f, 3i, 3l, 3n and 3p against superoxide radicals was assessed via enzymatic assay in vitro using the SOD assay kit-WST according to the manufacturer’s instructions (Sigma-Aldrich®). The reaction mixtures in the SOD kit were combined with 20 μL of working solution of the samples in a 96-well plate. Plates were gently shaken and then incubated at 25 °C for 30 min. The reference positive control, diphenyleneiodonium (DPI), and the compounds were tested at 01, 5, 10, 25 and 50 µM in duplicates. The inhibition activity of SOD on the reaction of […] generated the superoxide with a tetrazolium salt, which was then determined by measuring the absorbance of the mixtures at a wavelength of 450 nm using an Elisa plate reader (Varioskan Flash, ThermoFisher Scientific, Vantaa, Finland). The SOD activity values obtained used to calculate the percentage of inhibition. % SOD activity=ODx− ODy/ODx ×100% where ODx is the absorbance of the blank (untreated SOD) and ODy is the absorbance of the sample (treated SOD). All tests were performed in duplicate.

[7] = test system: lung cancer (A549) cell line; test: MTT cytotoxicity assay, A549; conditions: for Cell viability percentage, A549: Table S3
[8] = MTT cytotoxicity assay, HEK293-T; conditions: human, HEK293-T cells
Protocol: (§2) Cells were cultured in sterile Dulbecco’s Minimal Essential Medium (DMEM, Gibco) supplemented with 10% fetal bovine serum (FBS) and 1% penicillin-streptomycin solution. […] Cell counting was carried out using a handheld automated cell counter (Scapter 3.0™, Merck, Burlington, MA, USA) and seeded (1 × 10^4 cells/well) into a 96-well plate. After 24 h, the cells were treated with different concentrations (1, 5, 10, 25 and 50 µM) of the test compounds and reference standards prepared in DMEM. The MTT solution (20 μL) prepared in PBS (5 mg/mL) was added to all the wells, and the plates were incubated for 4 h, followed by 1 h incubation with 100 µL of dimethyl sulfoxide (DMSO) to dissolve the formazan crystals. Untreated cells and 5% DMSO were included in the experiment as negative controls. All experiments were performed in triplicate. The plates were read at 570 nm at a reference wavelength of 630 nm using an ELISA plate reader (Varioskan Flash, ThermoFisher Scientific, Vantaa, Finland). The percentage of cell viability was calculated using the following formula, Cell viability %=At/Ab×100 where At represents the absorbance value of test compound and Ab the absorbance value of the blank. […] The data were expressed as means ± SD.

[9] = test system: human embryonic kidney (HEK293-T) cell line; test: MTT cytotoxicity assay, HEK293-T; conditions: Homo sapiens, HEK-293T, read-out: IC50 Hek293-T
Protocol: as §2

**Q.** What does the source list for CC1=[N+]([O-])C(c2ccccc2)Nc2c(I)cc(Br)cc21 (stereo not shown) [Compound 3i]?
**A.** IC50 [1]: 1.01 ± 0.05 µM; IC50 [2]: 1.04 ± 0.077 µM; IC50 [3]: 61.26 ± 0.005 µM; IC50 [4]: 29.08 ± 0.004 µM; IC50 [5]: 6.75 ± 0.002 µM; IC50 [6]: 15 ± 0.14 µM; melting point: 162 to 164 °C; Cell viability percentage, A549 ([7]; Conc. 1 (µM per method)): 84,0927%; Cell viability percentage, A549 ([7]; Conc. 5 (µM per method)): 69,8954%; Cell viability percentage, A549 ([7]; Conc. 10 (µM per method)): 61,098%; Cell viability percentage, A549 ([7]; Conc. 25 (µM per method)): 43,9195%; Cell viability percentage, A549 ([7]; Conc. 50 (µM per method)): 23,0847%; IC50 ([7]; Homo sapiens, A549, read-out: IC50 A549): 16.85 ± 0.05 µM; viability at 1 µM [8]: 34.9%; viability at 5 µM [8]: 33.9%; viability at 10 µM [8]: 33.8%; viability at 25 µM [8]: 29.8%; viability at 50 µM [8]: 26.9%; IC50 [9]: 34.9 ± 0.13 µM
